Test results taken from patent US20090305955A1, “Cyclopeptide with Anti-Cancer Activity Derived from Collagen Type IV” (priority 2006, published 2009).
Where a SMILES comes first, the peptide text is derived from it.

Columns and labels:
Type in all cases: cell-based, human
[1] = system: t-PA; experiment: Zymography in the presence of gelatine and plasminogen, UACC-903 cells; conditions: cyclopeptide 5 to 20 μM, linear heptapeptide 20 μM
Method: (§1) FIG. 14: Effect of YSNSG (SEQ ID NO: 3) cyclopeptide on the secretion of plasminogen activators. The secretion of u-PA (urokinase type plasminogen activator) and t-PA (tissue plasminogen activator) was analyzed by zymography in the presence of gelatine and plasminogen (A) in a medium conditioned by control UACC-903 cells in the absence of peptide (negative control, white bar), on cells treated with linear heptapeptide CNYYSNS (SEQ ID NO: 5) (20 μM) (positive control, black bar) or treated with the cyclopeptide YSNSG (SEQ ID NO: 3) at a concentration varying from 5 μM to 20 μM (grey bars). The conditioned medium was recovered and analyzed as described in the methods.
(§2) To determine the plasminogen activities, conditioned media of UACC-903 cells were analyzed by polyacrylamide gel electrophoresis in the presence of SDS and containing 1 mg/ml of gelatine and 10 μg/ml of plasminogen. After electrophoresis, the gels were incubated overnight at ambient temperature in a 100 mM glycine, 5 mM EDTA, pH 8.0 buffer.

[2] = system: u-PA; experiment: as above; conditions: cyclopeptide 5 to 20 μM, linear heptapeptide 20 μM
Method: as §1, §2

[3] = system: MMP-14; experiment: Western blot of proMMP-14 / MMP-14, UACC-903 cells; conditions: 20 μM
Method: FIG. 12: Effect of YSNSG (SEQ ID NO: 3) cyclopeptide on expression and activation of MMP-14. Expression of proMMP-14 (white bar) and MMP-14 (black bar) was studied by Western Blot (A) in a medium conditioned by UACC-903 cells in the absence of peptide (control), on cells treated with the linear heptapeptide CNYYSNS (SEQ ID NO: 5) (20 μm) or treated with the cyclopeptide YSNSG (SEQ ID NO: 3) at a concentration of 20 μM (cyclopeptide YSNSG (SEQ ID NO: 3)). The conditioned medium was recovered and analyzed as described in the methods. Quantification was carried out using Bio 1D software. (B);
The samples underwent 10% polyacrylamide gel electrophoresis in the presence of 0.1% SDS then were transferred onto Immobilon-P membranes (Millipore, St Quentin en Yvelines, France). The membranes were saturated with 5% freeze dried skimmed milk, Tween 20 0.1% in a 50 mM Tris-HCl, 150 mM NaCl buffer, pH 7.5 (TBS) for 2 hours at ambient temperature. The membranes were then incubated overnight at 4° C. with anti-MMP-14, anti-PAI-1 and anti-u-PAR antibodies then incubated for one hour at ambient temperature with a secondary antibody (anti-IgG) conjugated with peroxidase. The immune complexes were visualized with an ECL chemoluminescence detection kit.

[4] = system: UACC-903 melanoma cells; experiment: In vitro invasion/migration test (modified Boyden chambers, Matrigel); conditions: 20 μM; 48 hours; Matrigel membranes, 10% FCS chemoattractive agent
Method: FIG. 10: In vitro migration test for UACC-903 human melanoma cells in the presence of the cyclopeptide YSNSG (SEQ ID NO: 3). The UACC-903 cells were incubated with a control medium (control, negative, white bar), a linear heptapeptide CNYYSNS (SEQ ID NO: 5) (positive control, black bar) or with the cyclopeptide YSNSG (SEQ ID NO: 3) at 20 μM (grey bar). After an incubation period of 48 hours, the migrated cells were stained with crystal violet and counted under reverse microscopy.
Cell invasion was tested in modified Boyden chambers (ThinCert®, a cell culture insert for 24-well plates, internal diameter 8.36 mm, 8 μm pore, Greiner Bio-one, Courtaboeuf, France). Briefly, 5×10^4 cells were suspended in DMEM medium without FCS and containing 0.2% BSA and seeded onto membranes spread with Matrigel (30 μg/cm^2). DMEM medium supplemented with 10% FCS and 2% BSA were used as the chemo-attracting agent. […] The cells remaining on the upper surface of the membranes were eliminated by scraping and those on the lower surface were counted using a reverse microscope (Pasco et al, 2000(a)). The counted cells corresponded to the cells which had crossed the Matrigel mat then the porous membrane of the Boyden chamber; they thus reflected the migration and invasion capacities of the tumour cells through an extracellular matrix or a basal membrane, reproduced in this case by the Matrigel.

[5] = system: phospho-FAK; experiment: Phospho-FAK immunolabelling, HUVEC cells; conditions: 20 μM, 48 h
Method: FIG. 22: Effect of YSNSG (SEQ ID NO: 3) cyclopeptide on the organization of the cytoskeleton of HUVEC cells. The cells were cultivated on glass slides in the absence (control) or in the presence of 20 μM of YSNSG (SEQ ID NO: 3) cyclopeptide. After 48 h of incubation, the cells were fixed, permeabilized, incubated with phalloidin (A) or with an anti-Phospho-FAK antibody (B) then with Hoechst-33342. The slides were observed under a confocal microscope;
The cells were seeded onto sterile glass slides placed in 24-well plates (2×10^4 cells/well) in a suitable medium containing 5% serum in the presence or absence of YSNSG (SEQ ID NO: 3) cyclopeptide. After 24 and 48 hours incubation, the cells were fixed for 15 minutes in methanol. Three washes of 5 minutes in TBS-T were carried out, then the cells were incubated for 30 minutes at ambient temperature in a saturation solution (TBS-T containing 3% BSA). The cells were then incubated for 2 hours at ambient temperature in the presence of primary antibody diluted to 1/100 in TBS-T containing 3% BSA.

[6] = system: HUVEC cells; experiment: Scar wounding technique (artificial wound model); conditions: 48 h incubation, 20 μM
Method: FIG. 18: In vitro inhibition of HUVEC cell migration in the presence of YSNSG (SEQ ID NO: 3) cyclopeptide. Microscope photographs of artificial wounds produced on a monolayer of endothelial cells at T0 and T48h in the absence of peptide (control) or in the presence of 20 μM of YSNSG (SEQ ID NO: 3) cyclopeptide;
1×10^5 endothelial cells were seeded into 24-well plates and incubated for 24 hours at 37° C. A wound was made in the cellular monolayer at the centre of the well using a 200 μl cone point. The cells were washed with PBS to eliminate cell debris then incubated in the presence or absence of the cyclopeptide YSNSG (SEQ ID NO: 3). Closing of the wound, a witness to the migratory properties of the cells, was observed under the microscope and photographed after 48 hours incubation.

**Q.** “CNYYSNS (Synthetic linear heptapeptide) [linear peptide NC1 [α3(IV) 185-191], the 7 N-terminal amino acids of the 185-203 domain; positive control, reference compound]” was tested. Which “secretion of t-PA” value [1] did it give?
**A.** reduction observed

**Q.** And the “secretion of u-PA” value [2]?
**A.** reduction observed

**Q.** What about the “activation of proMMP-14” value [3] of the same molecule?
**A.** same intensity

**Q.** What about the “expression of proMMP-14” value [3] of the same molecule?
**A.** same intensity

**Q.** What about the “reduction in the migration of UACC-903 cells” value [4] of the same molecule?
**A.** similar

**Q.** What does the source list for `NC(=O)CC1NC(=O)C(CO)NC(=O)C(Cc2ccc(O)cc2)NC(=O)CNC(=O)C(CO)NC1=O` (stereo not drawn) [cyclopeptide YSNSG, cyclopeptide YSNSG (SEQ ID NO: 3)] (cyclo(GYSNS); configuration not given here)?
**A.** secretion of t-PA [1]: dose-dependent reduction; secretion of u-PA [2]: dose-dependent reduction; activation of proMMP-14 [3]: completely abolished; expression of proMMP-14 [3]: strongly inhibited; expression of the phosphorylated form of focal adhesion kinase (phospho-FAK) [5]: reduction; reduction in the migration of UACC-903 cells [4]: −47%; inhibition of the migration of the HUVEC cells [6]: 83%
